The source of these data is patent publication US7417034B2, “Pharmaceutically active uridine esters” (Trommsdorff GmbH & Co. KG Arzeneimittel, priority 2001, dated 2008).

The subject of data set [1] is permanent MCA occlusion in NMRI mice. The following applies: for effect on infarct area (in words): versus controls; for infarct area, Mean: evaluated 2 days after, vehicle only 29.89. How it is done: The neuroprotective effects of α-lipoic acid and more pronounced of dihydrolipoic acid are well known (P. Wolz, J. Krieglstein, Lipoic Acid in Health and Disease, New York, Basel, Hong Kong, Marcel Dekker Inc., 1997, pp. 205-225). Thus, dihydrolipoic acid was chosen as a positive control for comparison reasons.
Permanent middle cerebral artery (MCA) occlusion was performed in male NMRI mice (12 to 17 animals per group) according to the method described by Welsh et al. (J. Neurochem. 1987, 846-851). Briefly, after the mice were anesthetized with tribromoethanol (600 mg/kg intraperitoneally), a small hole was drilled in the skull to expose the middle cerebral artery. The stem of the middle cerebral artery and both branches were permanently occluded by electrocoagulation. Body temperature was maintained at 37° C.±1° C. with a heating lamp during the surgical procedure. Afterwards, the mice were kept at an environmental temperature of 30° C. for 2 hours after MCA occlusion.
For histologic evaluation, the mice were anesthetized again with tribromoethanol and perfused intraperitoneally with a 1.5% solution of neutral red (0.5 ml) 2 days after middle cerebral artery occlusion. The brains were removed and stored in a fixative (4% formalin in phosphate buffer solution, pH 7.4) for 24 hours.
The tissue on the brain surface unstained by neutral red was determined (in square millimeters) as infarcted surface area by means of an image analyzing system (Kontron, Eching, Germany) according to the publication of C. Backhauβ.
The injection of compound 5′, dihydrolipoic acid, and the vehicle only was performed intraperitoneally 1 hour before MCA occlusion. Compound 5′ and dihydrolipoic acid were dissolved in 25% macrogol 400 (vehicle). The injected volume was always 0.25-0.30 ml per mouse. Doses of 100, 150, and 500 mg/kg compound 5′ and 150 mg/kg dihydrolipoic acid were used. The control group received the vehicle (0.25-0.30 ml 25% macrogol 400 per mouse) only.
The differences between compound 5′-treated, dihydrolipoic acid-treated, and vehicle-treated animals were evaluated statistically according to the ANOVA and DUNCAN test.

Data set [2] concerns 5-HT and 5-HIAA level in substantia nigra. Description: 5-HT and 5-HIAA level in rat substantia nigra. Type of data set: in vivo, Wistar rats. The following applies: four i.p. portions. An excerpt: (§1) This example was selected to determine the effect of the compounds of the present invention on the concentration of dopamine its metabolite 3,4-dihydroxyphenyl acetic acid (DOPAC) and 5-hydroxytryptamine (5-HT or Serotonin) and its metabolite 5-hydroxyindol acetic acid (5-HIAA) in the substantia nigra and the Striatum of Wistar rats (Charles River, Sulzbach Rosenberg).
(§2) Said two brain regions were selected in order to examine dopaminergic neurons, because it is well known that said neurons are sensitive to neurotoxines which may cause M. Parkinson, Alzheimer, and Chorea Huntington. The method as described below was used to determine degenerative processes. Sodium malonate was used as a neurotoxic substance within said method.
100 mg of compound 5′ were dissolved in 5 ml 50% propan-1,2-diol (Merck, Darmstadt). Four 5 ml portions of compound 5′ were administered intraperitoneal to the test animals. […]
(§3) Four days after sodium malonate application, the Striatum and the treated and untreated part of the substantia nigra was separately excised, weighted, homogenized with perchloric acid, and centrifuged. Aliquots of the supernatants were subsequently subjected to HPLC and by the means of HPLC-ELCD the amount of dopamine, DOPAC, 5-HT, 5-HIM, and 3-methoxytyramine was […] measured.

The subject of data set [3] is hippocampal pyramid cells. The data set is described as follows: in-vitro Hippocampus cuts: glucose-induced over-sensitiveness of pyramid cells (population spike). It is filed as cell-based, rats. The following applies: 30 mM glucose; for IC50: amplitude of population spike, read-out: calculated IC50-value, reduction of glucose-induced over-sensitiveness; for concentration range of activity: population spike. The text has this:
The model used to determine the effect of the compounds of the present invention on treating diabetes and/or polyneuropathy comprises the use of in-vitro Hippocampus cuts for detecting the over-sensitiveness of pyramid cells due to the enhancement of the glucose concentration. Said over-sensitiveness could be antagonized dose-dependent by the use of a compound of the general formula (I).
The Hippocampus cuts of rats present a validated model for determination of interaction between a drug substance which is in direct contact with neuronal tissue. The interaction between a pharmaceutically active compound and the brain tissue can be examined directly, because of the maintenance of the three dimensional structure of the tissue within the in-vitro Hippocampus cut. Said compounds act on a special population of nerve cells, the pyramid cells of the Hippocampus. It is known that the synapse between pyramid cells and Schaffer-collaterals (which can be electrically stimulated) use the neurotransmitter glutamate for the process of signal transduction. The result of the electric stimulation, the so called population spike, represents the amount of activated pyramid cells. Other known models allow the in-vitro determination of a neuronal network only within a time frame of up to 8 hours. The advantage of this model is that neuronal network can be analyzed in-vitro over a much longer period after chemical or electric provocation of the cells. The cells are brought to an elevated level of stimulation which allows a long term measurement of pharmacologically active compounds under patho-physiologic conditions (W. Dimpfel et al., Antimicrobial Agents and Chemotherapy 1991, 1142-1146; W. Dimpfel et al., Eur. J. Med. Res. 1996, 1, 523-527).
Within the present method the level of stimulation was elevated by the use of an increased concentration of glucose in the superfusion medium in order to measure the antagonistic effect of the compounds of the present invention. Because of the fact that α-lipoic acid had been applied to this method (W. Dimpfel et al., Eur. J. Med. Res. 1996, 1, 523-527), compound 5′ was selected as a close related compound in order to produce reasonable results when comparing α-lipoic acid and uridine with compound 5′. Thus, α-lipoic acid and uridine were selected as reference.
21 adult male CD rats had been used within the present studies. The Hippocampus was isolated after anesthetization and exsanguination of the test animals. The middle part of the Hippocampus was fixed by means of a glue in phosphate-buffered saline (NaCl: 124 mM, KCl: 5 mM, CaCl2: 2 mM, MgSO4: 2 mM, NaH2PO4: 1.25 mM, NaHCO3: 26 mM, glucose: 10 mM; control solution: ACSF; Carl Roth, Karlsruhe, Germany). The Hippocampus was subsequent cut into slides of […] by means of a Vibratom (Rhema Labortechnik). The Hippocampus cuts were stored at least one hour before the test runs in an incubation chamber under carbogen (S. J. Schiff, G. G. Somjen, Brain Research 1985, 345, 279-284).
The experiment was carried out in a so called “Base Unit with Haas Top” (Medical Systems Corporation, U.S.A.) at a temperature of 35° C. according to the protocol of H. L. Haas and R. W. Greene (Neurotransmitter and cortical function; ed. M. Avoli, T. A. Reader, R. W. Dykes and P. Gloor, pp. 483-494, Plenum Publishing Corp.). The Hippocampus cut was placed on a piece of gauze and perfused by means of peristaltic pumps. The test apparatus was flushed with carbogen (flow rate: 200 ml per hour) in order to maintain the necessary oxygen supply.
The CA2-region was stimulated by means of a stimulus generator (laboratory computer, Pro Science) and a bipolar concentric steel electrode (Rhodes Medical Systems, U.S.A.). A pulse width of 200 μs was used and the amperage was constantly kept at 200 μA. The stimulus generator released four single stimulation signals within intervals of 20 seconds which released a total number of four population spikes in the Hippocampus cut. […]

Data set [4] concerns dopamine and DOPAC concentration in the Striatum. The data set is described as follows: Dopamine and DOPAC concentration in rat Striatum, sodium malonate neurotoxicity model. It is filed as in vivo, Wistar rats.
Description: as §1, §2
It is known that sodium malonate increases the release von dopamine in the Striatum of the test animals. Groups of six Wistar rats each have been used as test animals. Thus, the dopamine concentration can be used as an indicator in order to determine the harmful effect of neurotoxines.
100 mg of compound 5′ were dissolved in 5 ml 50% propan-1,2-diol (Merck, Darmstadt). Four 5 ml portions of compound 5′ were administered intraperitoneal to the test animals. The first portion was administered in the evening of the first test day, the second portion during the next morning, the third portion in the evening of the second test day and the late portion during the morning of the third test day. Thirty minutes after the last application of compound 5′ 2 μmol sodium malonate dissolved in physiologic sodium chloride solution were injected into the left Striatum by means of a precision pump (flow rate 0.5 μl/min.) after having anesthetized the rats (Ketamin: 80 mg/kg and Xylasin: 6-10 mg/kg).
as §3

[5] abbreviates: 150 mg/kg intraperitoneally 1 hour before MCA occlusion.
Setting [6] is: compound alone, four i.p. portions, p<0.05.
Setting [7] is: 2 μmol sodium malonate injected into left Striatum, four days after, p<0.001.

Entries after “also recorded” stand apart in the source; their conditions may differ. Read-outs that look alike come from different tables or passages of the source.

Regarding `O=C(O)CCCC[C@@H](S)CCS` (racemic) [dihydrolipoic acid, reference compound], the “effect on infarct area (in words)” value in data set [1] (150 mg/kg i.p.) is recorded as “no effect at all”. Moreover, the “infarct area, Mean” value in data set [1] (setting [5]) turned out to be 27.94 square millimeters.
In the case of `O=C(CCCCC(S)CCS)OC[C@H]1O[C@@H](n2ccc(=O)[nH]c2=O)[C@H](O)[C@@H]1O` (stereo partly drawn) [Compound 5′, (2′R,3′S,4′R,5′R)-6,8-Dimercapto-octanoic acid 5′-(2,4-dioxo-3,4-dihydro-2H-pyrimidine-1-yl)-3′,4′-dihydroxy-tetrahydrofuran-2′-ylmethyl ester], the “infarct area, Mean” value in data set [1] (100 mg/kg intraperitoneally 1 hour before MCA occlusion) worked out at 26.22 square millimeters. Besides, the “infarct area, Mean” value in data set [1] (setting [5]) was 27.00 square millimeters. Besides, the “effect on infarct area (in words)” value in data set [1] (500 mg/kg i.p.) was “no longer statistically reduced; also recorded: only a slight neuroprotective effect”. Further, in data set [1] (500 mg/kg intraperitoneally 1 hour before MCA occlusion), the “infarct area, Mean” value came out at 28.24 square millimeters. Further, in data set [1] (lowest dose, 100 mg (100 mg/kg) i.p., versus vehicle), the “effect on infarcted area (in words)” value is “significantly reduced the infarcted area; also recorded: most pronounced”. For the same compound, the “toxic effects in mice” value in data set [1] (mice of the MCA occlusion study, 100-500 mg/kg i.p.) was “no toxic effects could be detected”. Also, in data set [2] (FIG. 5a), the “5-HT concentration in rat substantia nigra (in words)” value is listed as “significantly increase; also recorded: increased dramatically”. In addition, the “5-HIAA level in rat substantia nigra (in words)” value in data set [2] (FIG. 5b) is on record as “significantly increase; also recorded: increased dramatically”. Moreover, in data set [3] (rat Hippocampus cuts), the “reduction of the elevated stimulation level / over-sensitiveness (in words)” value is listed as “able to reduce dose-dependent the elevated stimulation level; also recorded: most effectively treated; also recorded: able to significantly reduce the increased over-sensitiveness”, the IC50 was 5 µM and the “concentration range of activity” value was in the range of 1 to 25 µM. Further, the “compensation of malonate-induced dopamine depletion in rat striatum (in words)” value in data set [4] (FIG. 4, relatively low concentrations) was “can almost be compensated”. Moreover, in data set [4] (setting [6]), the “change of the concentration of DOPAC in the Striatum” value is “+10%” and the “change of the concentration of dopamine in the Striatum” value is “+18%”. Moreover, in data set [4] (compound i.p. together with 2 μmol sodium malonate into left Striatum), the “more dopamine in comparison to the application of malonate only” value is listed as “+44%”.
On to `O=C(CCCC[C@@H]1CCSS1)OC[C@H]1O[C@@H](n2ccc(=O)[nH]c2=O)[C@H](O)[C@@H]1O` [Compound R-5, (2′R,3R,3′S,4′R,5′R)-5-[1,2]Dithiolan-3-yl-pentanoic acid 5′-(2,4-dioxo-3,4-dihydro-2H-pyrimidine-1-yl)-3′,4′-dihydroxy-tetrahydrofuran-2′-ylmethyl ester], for which, in data set [3] (rat Hippocampus cuts), the IC50 is 8 µM and the “concentration range of activity” value was in the range of 1 to 15 µM.
Taken in the same sequence, the figures for `O=C(CCCC[C@H]1CCSS1)OC[C@H]1O[C@@H](n2ccc(=O)[nH]c2=O)[C@H](O)[C@@H]1O` [Compound S-5, (2′R,3S,3′S,4′R,5′R)-5-[1,2]Dithiolan-3-yl-pentanoic acid 5′-(2,4-dioxo-3,4-dihydro-2H-pyrimidine-1-yl)-3′,4′-dihydroxy-tetrahydrofuran-2′-ylmethyl ester] were 4 µM and 1 to 10 µM.
On to `O=C([O-])CC(=O)[O-].[Na+].[Na+]` [malonate, sodium malonate, reference compound], for which, in data set [4] (setting [7]), the “change of the concentration of DOPAC” value is recorded as −30% and the “change of the concentration of dopamine” value was −44%.
As for `O=c1ccn([C@@H]2O[C@H](CO)[C@@H](O)[C@H]2O)c(=O)[nH]1` [uridine], the IC50 in data set [3] (Rattus norvegicus) is 40 µM. Besides, the “reduction of the elevated stimulation level / over-sensitiveness (in words)” value in data set [3] (rat Hippocampus cuts) is given as “able to reduce dose-dependent the elevated stimulation level; also recorded: only weaker effects; also recorded: much weaker effects”.
As for `O=C(O)CCCCC1CCSS1` (stereo not drawn) [α-lipoic acid, reference compound], in data set [3] (rat Hippocampus cuts), the “reduction of the elevated stimulation level / over-sensitiveness (in words)” value was “able to reduce dose-dependent the elevated stimulation level; also recorded: only weaker effects; also recorded: much weaker effects”, the IC50 was around 200 µM and the “concentration range of activity” value is at most 400 µM.

What is called IC50 is the concentration that gives 50% inhibition.
